# According to US20240165112A1, “THERAPY FOR THE TREATMENT OF CANCER” (Bristol-Myers Squibb Company, priority 2022, published 2024):
# Experiments:
# [1] = test system: 4T1.2 cell line; assay: 2D cell line viability assay (cell confluence); assay type: cell-based, murine; settings: Mus musculus, 4T1.2, 96 h
# Excerpt: (§1) FIGS. 4A-4E illustrate the effects of Compound 1 on the Potency of Paclitaxel in a 2D Cell Line Viability Assay. […] Data points indicate mean and Standard Deviation of 2 biological replicates. Graphs are representative of at least 2 independent experiments. […] Abbreviations: DMSO, dimethylsulfoxide.
# [2] = test system: EMT6 cell line; assay: 2D cell line viability assay (cell confluence); assay type: cell-based, murine; settings: Mus musculus, EMT6, 96 h, 4 days
# Excerpt: as §1
# [3] = test system: A549 cell line; assay: 2D cell line viability assay (cell confluence); assay type: cell-based; settings: Homo sapiens, A549, 96 h, 4 days
# Excerpt: as §1
# [4] = test system: HT29 cell line; assay: 2D cell line viability assay (cell confluence); assay type: cell-based; settings: Homo sapiens, HT-29, 96 h, 4 days
# Excerpt: as §1
# [5] = test system: NCI-H460 cell line; assay: 2D cell line viability assay (cell confluence); assay type: cell-based; settings: Homo sapiens, NCI-H460, 96 h, 4 days
# Excerpt: as §1
# [6] = test system: LXFE2478 organoid, NSCLC (squamous subtype); assay: 3D clonogenic assay in patient derived organoids; assay type: cell-based, human; settings: for Combination activity 5 μM Compound 1 (cAUC % reduction): chemotherapy dose titration + 5 μM Compound 1 vs chemotherapy alone; for Combination activity 20 μM Compound 1 (cAUC % reduction): chemotherapy dose titration + 20 μM Compound 1 vs chemotherapy alone
# Description: (§2) Five tumor cell lines (4T1.2, A549, EMT6, NCI-H460, and HT29) were treated with a range of paclitaxel or 5-FU concentrations in the presence of dimethlylsulfoxide (DMSO), 5 μM Compound 1, or 20 μM Compound 1. Cells were imaged 4 days after treatment and percent confluence was assessed by image quantification. EC50 values for cell confluence were used to assess chemotherapy potency. Eleven patient-derived tumor organoids (MAXFTN449, MAXFTN2990, PAXF1657, PAXF2131, CXF1256, CXF2129, CXF2061, LXFE2478, LXFE690, LXFA677, LXFA644) were seeded in a 3D matrix and treated with a range of paclitaxel, 5-FU, SN38, Gemcitabine, oxaliplatin, and carboplatin concentrations in the presence of DMSO, 5 μM Compound 1, or 20 μM Compound 1. After 8 to 13 days in culture, colonies were stained, imaged, and counted. A dose response curve was generated for chemotherapy alone or chemotherapy in combination with 5 or 20 μM Compound 1. Combination activity was defined as a percentage of the area under the chemotherapy dose response curve (cAUC) for Compound 1 combination groups compared to the cAUC of chemotherapy alone.
# (§3) For combination experiments, working stock solutions of all compounds were prepared in DMSO at concentrations of 660-fold the highest test concentration used and stored at −20° C. Platin compounds were prepared freshly on each treatment day. On each day of an experiment, an aliquot of the working stock solutions was used and stored at room temperature prior to and during treatment. First, 1:2 dilutions of 660-fold concentrated working stocks were prepared in DMSO (in case of monotherapy controls), or equal amounts of the compound working stocks were mixed (in case of drug combinations). Then, different dilutions of these 330-fold concentrated solutions were prepared in DMSO to give an 8×2 matrix combination layout with conditions. The DMSO dilutions were further diluted […] into cell culture medium (IMDM, supplemented with 20% (v/v) fetal bovine serum, and 50 μg/mL gentamicin) in an intermediate dilution plate. Finally, 10 μL taken from the intermediate dilution plate were transferred to 140 μL of cells and medium per well of the final assay plate. Thus, the DMSO dilutions used for the mono- and the combination-treatment were diluted 1:660, and the DMSO concentration in the assay was […].
# (§4) Tumors were passaged as subcutaneous xenografts in NMRI nu/nu mice. At a tumor volume of 400 to 1000 mm^3, tumor-bearing mice were euthanized, and tumors were collected under sterile conditions without delay. Tumors were mechanically disaggregated and subsequently incubated with an enzyme cocktail consisting of collagenase type IV (41 U/mL), DNase I (125 U/mL), hyaluronidase type III (100 U/mL), and dispase II (1 U/mL) in RPMI 1640 medium at 37° C. for 60 to 120 minutes. Cells were passed through sieves of 100 μm and 40 μm mesh size, and washed with RPMI 1640 medium. The percentage of viable cells was determined in a Neubauer-hemocytometer using trypan blue exclusion. Aliquots of the cells were frozen down and stored in liquid nitrogen vapor phase. On each day of an experiment, a frozen aliquot of tumor cells was thawed and used for preparation of assay plates.
# (§5) The clonogenic assay was carried out in a 96 well plate format using ultra low attachment plates. For each test, plates were prepared as follows: each test well contained a layer of semi-solid medium with tumor cells (50 μL), and a second layer of medium supernatant with or without test compound (100 μL). The cell layer consisted of […] to 12.5×10^3 tumor cells per well, which were seeded in 50 μL/well cell culture medium (IMDM, supplemented with 20% (v/v) fetal bovine serum, 50 μg/mL gentamicin, and 0.4% (w/v) agar). After 24 hours, the soft-agar layer was covered with 90 μL of the same culture medium without agar, and 10 μL of control medium or test compound after serial dilution in DMSO for the duration of the experiment (continuous exposure, 100 μL drug overlay).
# [7] = test system: LXFE690 organoid, NSCLC (squamous subtype); assay: 3D clonogenic assay in patient derived organoids; assay type: cell-based, human; settings: for Combination activity 5 μM Compound 1 (cAUC % reduction): chemotherapy dose titration + 5 μM Compound 1 vs chemotherapy alone; for Combination activity 20 μM Compound 1 (cAUC % reduction): chemotherapy dose titration + 20 μM Compound 1 vs chemotherapy alone
# Description: as §2, §3, §4, §5
# [8] = test system: MAXFTN2990 organoid, breast cancer (triple negative); assay: 3D clonogenic assay in patient derived organoids; assay type: cell-based, human; settings: for Combination activity 20 μM Compound 1 (cAUC % reduction): chemotherapy dose titration + 20 μM Compound 1 vs chemotherapy alone
# Description: as §2, §3, §4, §5
# [9] = test system: MAXFTN449 organoid, breast cancer (triple negative); assay: 3D clonogenic assay in patient derived organoids; assay type: cell-based, human; settings: for Combination activity 20 μM Compound 1 (cAUC % reduction): chemotherapy dose titration + 20 μM Compound 1 vs chemotherapy alone
# Description: as §2, §3, §4, §5
# [10] = test system: PAXF1657 organoid, pancreatic cancer; assay: 3D clonogenic assay in patient derived organoids; assay type: cell-based, human; settings: for Combination activity 20 μM Compound 1 (cAUC % reduction): chemotherapy dose titration + 20 μM Compound 1 vs chemotherapy alone
# Description: as §2, §3, §4, §5
# [11] = test system: PAXF2131 organoid, Pancreatic cancer; assay: 3D clonogenic assay in patient derived organoids; assay type: cell-based, human; settings: for Combination activity 20 μM Compound 1 (cAUC % reduction): chemotherapy dose titration + 20 μM Compound 1 vs chemotherapy alone
# Description: as §2, §3, §4, §5
# [12] = test system: LXFA644 organoid, NSCLC (adenocarcinoma subtype); assay: 3D clonogenic assay in patient derived organoids; assay type: cell-based, human
# Description: as §2, §3, §4, §5
# [13] = test system: LXFA677 organoid, NSCLC (adenocarcinoma subtype); assay: 3D clonogenic assay in patient derived organoids; assay type: cell-based, human
# Description: as §2, §3, §4, §5
# [14] = in the presence of 5 μM Compound 1
# [15] = in the presence of 20 μM Compound 1
# [16] = chemotherapy dose titration + 5 μM Compound 1 vs chemotherapy alone
# [17] = chemotherapy dose titration + 20 μM Compound 1 vs chemotherapy alone
smiles,measurement,setting,value
"CC(=O)O[C@H]1C(=O)[C@@]2(C)[C@H]([C@H](OC(=O)c3ccccc3)[C@]3(O)C[C@H](OC(=O)[C@H](O)[C@@H](NC(=O)c4ccccc4)c4ccccc4)C(C)=C1C3(C)C)[C@]1(OC(C)=O)CO[C@@H]1C[C@@H]2O (relative stereo) [Paclitaxel, (1S,2S,3R,4S,7R,9S,10S,12R,15S)-4,12-diacetoxy-15-{[(2R,3S)-3-(benzoylamino)-2-hydroxy-3-phenylpropanoyl]oxy}-1,9-dihydroxy-10,14,17,17-tetramethyl-11-oxo-6-oxatetracyclo[11.3.1.0˜3,10˜0.0˜4,7˜]heptadec-13-en-2-yl rel-benzoate]",EC50,"[1]; 4 days after treatment, in the absence of Compound 1",48 nM
same,EC50,"[1]; 4 days, in the presence of 5 μM Compound 1",16 nM
same,EC50,"[1]; 4 days, in the presence of 20 μM Compound 1",3.4 nM
same,EC50,[2]; in the absence of Compound 1,19 nM
same,EC50,[2]; [14],5.5 nM
same,EC50,[2]; [15],1.9 nM
same,EC50,[3]; in the absence of Compound 1,1.6 nM
same,EC50,[3]; [14],1.6 nM
same,EC50,[3]; [15],1 nM
same,EC50,[4]; in the absence of Compound 1,1.8 nM
same,EC50,[4]; [14],1.9 nM
same,EC50,[4]; [15],1.8 nM
same,EC50,[5]; in the absence of Compound 1,6.5 nM
same,EC50,[5]; [14],2.9 nM
same,EC50,[5]; [15],2.3 nM
same,Combination activity 5 μM Compound 1 (cAUC % reduction),[6],46%
same,Combination activity 20 μM Compound 1 (cAUC % reduction),[6],45%
same,Combination activity 20 μM Compound 1 (cAUC % reduction),[6]; listed as paclitaxel,45%
same,Combination activity 5 μM Compound 1 (cAUC % reduction),[7],87%
same,Combination activity 20 μM Compound 1 (cAUC % reduction),[7],94%
same,Combination activity 20 μM Compound 1 (cAUC % reduction),[7]; listed as paclitaxel,94%
same,Combination activity 5 μM Compound 1 (cAUC % reduction),[8]; [16],63%
same,Combination activity 20 μM Compound 1 (cAUC % reduction),[8],77%
same,Combination activity 20 μM Compound 1 (cAUC % reduction),[8]; listed as paclitaxel,77%
same,Combination activity 5 μM Compound 1 (cAUC % reduction),[9]; [16],57%
same,Combination activity 20 μM Compound 1 (cAUC % reduction),[9],42%
same,Combination activity 20 μM Compound 1 (cAUC % reduction),[9]; listed as paclitaxel,42%
same,Combination activity 5 μM Compound 1 (cAUC % reduction),[10]; [16],50%
same,Combination activity 20 μM Compound 1 (cAUC % reduction),[10],64%
same,Combination activity 20 μM Compound 1 (cAUC % reduction),[10]; listed as paclitaxel,64%
same,Combination activity 5 μM Compound 1 (cAUC % reduction),[11]; [16],58%
same,Combination activity 20 μM Compound 1 (cAUC % reduction),[11],71%
same,Combination activity 20 μM Compound 1 (cAUC % reduction),[11]; listed as paclitaxel,71%
"Nc1ccn([C@@H]2O[C@H](CO)[C@@H](O)C2(F)F)c(=O)n1 [Gemcitabine, gemcitabine]",Combination activity 5 μM Compound 1 (cAUC % reduction),[12]; [16],3%
same,Combination activity 20 μM Compound 1 (cAUC % reduction),[12]; [17],20%
same,Combination activity 5 μM Compound 1 (cAUC % reduction),[13]; [16],7%
same,Combination activity 20 μM Compound 1 (cAUC % reduction),[13]; [17],15%
same,Combination activity 5 μM Compound 1 (cAUC % reduction),[6],41%
same,Combination activity 5 μM Compound 1 (cAUC % reduction),[6]; listed as gemcitabine,41%
same,Combination activity 20 μM Compound 1 (cAUC % reduction),[6],30%
same,Combination activity 5 μM Compound 1 (cAUC % reduction),[7],59%
same,Combination activity 20 μM Compound 1 (cAUC % reduction),[7],61%
